Measurements published in patent publication US20110077212A1, “THERAPEUTIC USES OF SGLT2 INHIBITORS” (Theracos, Inc., priority 2009, published 2011).
Where “and” joins values, the source holds several entries; their conditions need not be identical. Equal values may be shown once. Where a name gives a salt, the structure may show the parent alone.

Key:
[1] = tested on: SD Rats Fed a Pioglitazone (0.03%) Containing Diet; assay: Plasma volume (hematocrit) of SD rats fed a pioglitazone-containing diet for 7 days; type: in vivo, Sprague-Dawley rats; conditions: for Plasma expansion versus vehicle treated rats (in words): 7 days pioglitazone diet, compound in drinking water; for Plasma Volume % DAY 1: day 1 (first day of pioglitazone 0.03% diet and compound in drinking water), amiloride 1.5 mg/kg; for Plasma Volume % DAY 1 / Plasma Volume % DELTA / Plasma Volume % DAY 7: TEST COMPOUND 4.5 mg/kg, mean ± SEM; for Plasma Volume % DELTA: day 7 minus day 1, pioglitazone 0.03% diet; for Plasma Volume % DELTA / Plasma Volume % DAY 7: amiloride 1.5 mg/kg in drinking water; for Plasma Volume % DAY 7: day 7 of pioglitazone 0.03% diet
Source text: (§1) […] On day −5 rats and water bottles were weighed and placed in the cage with ad lib access to standard rodent chow. Body weights were used to assign rats to counter-balanced groups. Daily water consumption was estimated after weighing bottles again on day −1 and used to determine the appropriate drug concentrations to achieve the desired daily doses. On day 1, rats were weighed and then received an ad mixed diet (ad lib) containing 0.03% pioglitazone in place of standard chow. Food weight was recorded in order to track consumption over the course of the experiment. At this time, rats were also given drinking water containing compound at the appropriate concentration. Full bottles were pre-weighed and recorded in order to track consumption over the course of the experiment. On day 1 and day 7, rats were warmed using a heating pad and lightly anesthetized using isoflurane (Butler Animal Health Services; Chicago, Ill.). Using a sterile scalpel blade, a small tail nick was made on the distal one third of the tail. Blood was collected in a heparinized microcapillary tube (FisherBrand; Pittsburg, Pa.), sealed with putty at one end and stored on ice until centrifugation (5000 rpm, 5 min). Plasma volume was determined using a Critocaps microhematocrit capillary tube reader card (Leica: Lot #7426). On day 7, rats, food and water bottles were again weighed and recorded, hematocrits were determined using blood collected by a tail nick. All data are presented as means +/−1 SEM. Statistical analyses were performed using GraphPad Prism statistical software. The mean differences among the treatment groups for all variables were tested for statistical significance using 2-way repeated measures ANOVAs. Additionally, differences were calculated for each animal (day 7−day 1), and resultant means were tested for statistical significance using 1-way ANOVAs.

[2] = tested on: SD Rats Fed a Pioglitazone (0.03%) Containing Diet; assay: Body weight of SD rats fed a pioglitazone-containing diet for 7 days; type: in vivo, Sprague-Dawley rats; conditions: for Body Weight (g) DAY 1: day 1 (first day of pioglitazone 0.03% diet and compound in drinking water), amiloride 1.5 mg/kg; for Body Weight (g) DAY 1 / Body Weight (%) DELTA (percent weight gain) / Body Weight (g) DELTA (weight gain) / Body Weight (g) DAY 7 / Body Weight (%) DAY 7: TEST COMPOUND 4.5 mg/kg; for Body Weight (g) DAY 1 / Body Weight (%) DELTA (percent weight gain) / Body Weight (g) DELTA (weight gain) / Body Weight (g) DAY 7 / Body Weight (%) DAY 1 / Body Weight (%) DAY 7: mean ± SEM; for Body Weight (%) DELTA (percent weight gain): day 7 minus day 1, percent of day 1 value; for Body Weight (%) DELTA (percent weight gain) / Body Weight (g) DELTA (weight gain) / Body Weight (%) DAY 1 / Body Weight (%) DAY 7: pioglitazone 0.03% diet; for Body Weight (%) DELTA (percent weight gain) / Body Weight (g) DELTA (weight gain) / Body Weight (g) DAY 7 / Body Weight (%) DAY 7: amiloride 1.5 mg/kg in drinking water; for Body Weight (g) DELTA (weight gain): day 7 minus day 1; for Body Weight (g) DAY 7: day 7 of pioglitazone 0.03% diet; for Body Weight (%) DAY 1 / Body Weight (%) DAY 7: percent of day 1 value
Source text: as §1, with “day” for “day 1 and day 7, rats were warmed using a heating pad and lightly anesthetized using isoflurane (Butler Animal Health Services; Chicago, Ill.). Using a sterile scalpel blade, a small tail nick was made on the distal one third of the tail. Blood was collected in a heparinized microcapillary tube (FisherBrand; Pittsburg, Pa.), sealed with putty at one end and stored on ice until centrifugation (5000 rpm, 5 min). Plasma volume was determined using a Critocaps microhematocrit capillary tube reader card (Leica: Lot #7426). On day”

[3] = one week, pioglitazone 20-25 mg/kg/day in diet

Structure (SMILES) | Plasma expansion versus vehicle treated rats (in words) [1] | Plasma Volume % DAY 1 [1] [%] | Plasma Volume % DELTA [1] [%] | Plasma Volume % DAY 7 [1] [%] | Body Weight (g) DAY 1 [2] | Body Weight (%) DELTA (percent weight gain) [2] | Body Weight (g) DELTA (weight gain) [2] | Body Weight (g) DAY 7 [2] | Body Weight (%) DAY 1 [2] | Body Weight (%) DAY 7 [2] | Plasma expansion induced by pioglitazone (in words) [1, 3] | Increase in body weight induced by pioglitazone [2, 3]
N=C(N)NC(=O)c1nc(Cl)c(N)nc1N [Amiloride, Amiloride HCl Hydrate] | significance for the observed trend toward reversal of PPAR-γ induced expansion was not achieved | 52.7 ± 0.9 | 3.9 ± 0.7 | 56.6 ± 0.4 | 370.0 ± 6.0 g | 10.8 ± 0.7% | 40.0 ± 2.8 g | 410.0 ± 7.7 g | 100 ± 0% | 110.8 ± 0.7 % |  | 
OC[C@H]1O[C@@H](c2ccc(Cl)c(Cc3ccc(OCCOC4CC4)cc3)c2)[C@H](O)[C@@H](O)[C@@H]1O [TEST COMPOUND, (2S,3R,4R,5S,6R)-2-(4-chloro-3-(4-(2-cyclopropoxyethoxy)benzyl)phenyl)-6-(hydroxymethyl)tetrahydro-2H-pyran-3,4,5-triol] | significantly less plasma expansion than vehicle treated rats | 52.9 ± 0.5 | 1.8 ± 0.8 | 54.7 ± 0.6 | 371.7 ± 5.0 ^ g | 4.8% and 4.8 ± 1.3 % | 17.4 g and 17.5 ± 4.7 g | 389.2 ± 5.7 ^†† g | 100 ± 0 ^ % | 104.8 ± 1.3 ^†† % |  | 
CCc1ccc(CCOc2ccc(CC3SC(=O)NC3=O)cc2)nc1 (stereo not shown) [pioglitazone] |  |  |  |  |  |  |  |  |  |  | significant plasma expansion | approximately 45 g
